Patent US20160199445A1, “USE OF ARPIN A NEW INHIBITOR OF THE ARP2/3 COMPLEX FOR THE DIAGNOSIS AND TREATMENT OF DISEASES” (CENTRE NATIONAL DE LA RECHERCHE SCIENTIFIQUE, priority 2013, published 2016)

Assays:
Arp2/3 complex [1] = test: GST fusion pulldown of Arp2/3 from HeLa cell extract (western blot against ArpC2); format: binding; settings: GST fusions
Description: (§1) FIG. 1: Arpin inhibits Arp2/3 activation in vitro. a, Alignment of acidic C-termini of 3 NPFs and of Arpin. […] Pulldown was performed with HeLa cell extract and GST fusions of Arpin full length (FL), Arpin deleted of its last 16 amino-acids (ΔA), the last 16 amino-acids (A) or the VCA domain of N-WASP as a positive control. Arp2/3 binding was assessed by western blot against the ArpC2 subunit. c, Spectrofluorimetry assay to monitor actin polymerisation.
(§2) 6. GST Pull Down, Immunoprecipitations, SDS-PAGE and Western Blots HeLa cells were lysed in 50 mM Tris-HCl, 150 mM NaCl, 1 mM EDTA, 1 mM DTT, 0.5% Triton-X100, 5% glycerol, pH 7.5. 20 μg of GST fusion protein associated with 20 μl of glutathione sepharose 4B beads (GE […]) were incubated with 1 ml of HeLa cell extracts for 2 h at 4° C. Beads were washed and analysed by western blot.

Arp2/3 complex [2] = test: Fluorescence anisotropy based determination of Kd (labelled ArpinA peptide, purified Arp2/3 complex); format: binding; settings: for displacement of labelled ArpinA peptide bound to the Arp2/3 complex: titration of labelled ArpinA peptide/Arp2/3 complex with purified protein
Description: FIG. 5: Arpin directly binds to the Arp2/3 complex with a dissociation constant of 200 nM. a, Fluorescence anisotropy measurements of labelled ArpinA peptide binding at equilibrium to the purified Arp2/3 complex at the indicated concentrations. b, Labelled ArpinA peptide bound to the Arp2/3 complex was then titrated with purified Arpin FL, ArpinΔA or unlabelled ArpinA peptide as indicated. […] Curves that best fit the values yield the indicated equilibrium constants.
The ArpinA peptide was synthesized and labelled with 5-TAMRA at the N-terminus (PROTEOGENIX). The peptide was excited with polarised light at 549 nm and emitted light was detected at 573 nm using a MOS450 fluorimeter (BIOLOGIC). Measurements were made for 60 s at 1 point/s and the average anisotropy was calculated with the Biologic software. Fits were performed as described in reference 40.

MDA-MB-231 cells = test: Electroporation of MDA-MB-231 cells with purified Arpin; analysis of cell migration; format: cell-based, human
Text: FIG. 27: Electroporation of MDA-MB-231 cells with purified Arpin; analysis of cell migration.
Purified recombinant Arpin can be introduced efficiently into various cell types by electroporation as shown in FIG. 26 with retinal pigment epithelial (RPE-I) cells, mouse embryonic fibroblasts (MEFs) and breast invasive human cell line MDA-MB-231. MDA-MB-231 cells depleted of Arpin migrates faster and more directionally than their respective non-targeting controls (shCtrl).

Arp2/3 complex [3] = test: Assembly of branched actin networks monitored by TIRF microscopy; format: biochemical; settings: 1 μM actin, 150 nM VCA, 80 nM Arp2/3, Arpin at 5 μM; 5, 10, 15 and 20 min
Description: as §1
FIG. 10: Quantification of Arpin inhibition on the generation of branched actin networks. Conditions as in FIG. 1d. Images were extracted from the TIRF movies, 5, 10, 15 and 20 min after initiation of the reaction. The number of branches and filaments were counted and the ratio determined.
(§3) Pyrene actin assays and monitoring of the branching reaction were performed as described in reference 38 with the conditions described in figure legends. VCA refers to the VCA domain of WAVE1 purified as described^39.

Arp2/3 complex [4] = test: Pyrene-actin polymerisation assay (spectrofluorimetry); format: biochemical; settings: for inhibition of VCA-activated Arp2/3 actin polymerisation: 2 μM actin (10% pyrene-labelled), 500 nM VCA, 20 nM Arp2/3
Description: as §1
Conditions: 2 μM Actin (10% pyrene-labelled), 20 nM Arp2/3, 500 nM Scar VCA, 5 μM Arpin.
FIG. 8: Determination of apparent Kd from Arpin inhibition of Arp2/3 nucleation. a, Arpin inhibits Arp2/3 activation in the pyrene-actin assay.
(§4) Arp2/3 is displaced from its interaction with 5 μM GST N-WASP VCA immobilized on glutathione beads by the Arpin Acidic peptide (304 μM and serial 2-fold dilutions).
as §3

Arp2/3 complex [5] = test: Competition pulldown: HeLa cell extract and GST N-WASP VCA immobilized on glutathione beads; format: binding; settings: 5 μM GST N-WASP VCA; Arpin/ArpinΔA 18 μM, ArpinA 304 μM and serial 2-fold dilutions
Description: as §1, §4, §2

trout keratocytes = test: Microinjection of purified protein into migrating fish keratocytes; format: cell-based, brook trout (Salvelinus fontinalis); settings: injected fish keratocytes; for turning (direction autocorrelation): n≧8, P<0.05 between 16 and 272 s
Text: FIG. 24: Arpin microinjection induces fish keratocyte to turn. a, Trout keratocytes were micro-injected with purified full length Arpin, ArpinΔA or buffer as control. Upon micro-injection of Arpin, lamellipodia were modified and the cells turned. Scale bar, 20 μm. b, Quantifications of the indicated parameters. Mean±sem; n≧8, * P<0.05, *** P<0.001, ANOVA. c, Kymograph of the Arpin microinjected keratocyte. The leading edge undergoes cycles of protrusions and retractions. d, Model. Directional persistence of migration in this cell system requires a positive feedback loop. Branched actin is sensed and activates Rac as a response. In this context, WAVE closes a positive feedback loop. In contrast, Arpin closes a negative feedback loop. These two nested positive and negative feedback loops can account for the oscillatory behavior of the leading edge observed upon Arpin micro-injection.
FIG. 25: Procedures to quantify fish keratocyte migration. a, Kymograph analysis. Lamellipodial dynamics were studied along a one-pixel-wide line oriented in the direction of protrusions, using the MultiKymograph plug-in in ImageJ. Protrusion velocity was the average of all protrusion slopes at the front of the cell. Projections along the distance axis and the time axis, gave, respectively, length and duration of the protrusion. Cell speed was determined using the slope of the dashed line indicating the rear of the cell. b, Outline analysis. Cell contours were defined using CellTrack software (http://db.cse.ohio-state.edu/CellTrack) and manually adjusted when necessary. The cell from frame t is overlayed with the same cell in frame t+100 s, using their center of mass as a reference. The non-overlapping areas are summed up to give the cell deformation between these two frames. […]
Keratocytes were isolated from scales of freshly killed brook trout (Salvelinus fontinalis) as previously described^41 and imaged by phase contrast on an inverted Zeiss Axioscope using ×63 optics, and a halogen lamp as light source. […] Contours were analysed using the CellTrack software (OHIO STATE UNIVERSITY). […]

prechordal plate cells = test: Prechordal plate cell migration and protrusions in morpholino-injected zebrafish embryos; format: in vivo
Text: FIG. 17: Arpin regulates protrusion frequency of prechordal plate cells and their collective migration in zebrafish embryos. a, In situ hybridisation of arpin probe in zebrafish embryos at different stages. arpin mRNAs are maternally deposited. During gastrulation, arpin is expressed in hypoblast, which includes the prechordal plate. b, 3D trajectories of prechordal plate cells in embryos injected with control or arpin morpholino. During fish gastrulation, prechordal plate cells migrate collectively in a straight direction from the margin of the embryo towards the animal pole^32,33. […] Lateral displacement is the cell movement perpendicular to main direction of the migration. Distance between cells refers to the average distance of the nucleus of a given cell to the nuclei of its 5 closest neighbors. Mean±sem; n≧1469; *** P<0.001, t-test. c, At the onset of gastrulation prechordal plate cells derived from morpholino injected embryos were transplanted into the prechordal plate of an untreated host embryo at the same stage in order to allow imaging of cell autonomous effects on protrusion formation. Donor embryos are injected with control or arpin morpholinos and mRNAs encoding Lifeact-mCherry as well as GFP-Arpin for the rescue. Time lapse imaging of injected cells is performed by epifluorescence to reveal Lifeact a marker of filamentous actin, which stains actin-based protrusions. […]

Kd (Arp2/3 complex [2]; fluorescence anisotropy, purified Arp2/3 complex, read-out: dissociation constant for binding to the Arp2/3 complex) | Kd (Arp2/3 complex [4]; in a mixture including actin and the VCA, best fit of number of actin barbed ends, read-out: apparent Kd for the Arp2/3 complex from inhibition of Arp2/3 nucleation) | Substance | Arp2/3 binding in pulldown (Arp2/3 complex [1]) | displacement of labelled ArpinA peptide bound to the Arp2/3 complex (Arp2/3 complex [2]) | speed and persistence of migration (MDA-MB-231 cells; Arpin-depleted MDA-MB-231 cells electroporated with purified Arpin) | idling (active movement) (MDA-MB-231 cells; MDA-MB-231 cells electroporated with Arpin protein) | frequency of branches in actin networks (ratio branches/filaments) (Arp2/3 complex [3]) | effect on spontaneous actin nucleation and activation of the Arp2/3 complex (Arp2/3 complex [4]; 2 μM Actin (10% pyrene-labelled), 20 nM Arp2/3, 500 nM Scar VCA, 5 μM Arpin) | inhibition of VCA-activated Arp2/3 actin polymerisation (Arp2/3 complex [4]) | competition with the NPF (VCA) for Arp2/3 binding (Arp2/3 complex [5]) | territory explored (Mean Square Displacement) (trout keratocytes; n≧8, P<0.001) | turning (direction autocorrelation) (trout keratocytes) | inhibition of VCA-activated Arp2/3 actin polymerisation (Arp2/3 complex [4]; listed as Acidic peptide) | dispersion of prechordal plate cells (lateral displacement, distance between cells) (prechordal plate cells; embryos injected with control or arpin morpholino, n≧1469, P<0.001) | probability of presence of protrusions and their duration (prechordal plate cells; transplanted prechordal plate cells from morpholino injected embryos, P<0.05)
200 nM | 760 ± 156 nM | Arpin: protein of SEQ ID NO: 1, product of human C15orf38 gene (residues 1-226); new inhibitor of the Arp2/3 complex | binds to the Arp2/3 complex through its acidic C-terminal region | displaces the labelled ArpinA peptide more efficiently than the A peptide | speed and persistence decreased | more idling (less active movement) | decreases the frequency of branches in actin networks | does not affect spontaneous actin nucleation and does not activate the Arp2/3 complex | inhibited actin polymerisation in a dose-dependent manner | Arp2/3 is displaced from its interaction with the VCA | explore a smaller territory than the controls | turn more than wild type | – | – | –
– | – | ArpinA: ArpinA peptide, residues 211-226 of full length Arpin (last 16 amino-acids, EIREQGDGAEDEEWDD) | – | – | – | – | – | – | inhibits Arp2/3 activation in a dose dependent manner | competes with the NPF for Arp2/3 binding | – | – | sufficient for this inhibition, although it was less effective than full length Arpin | – | –
– | – | ArpinΔA: Arpin deleted of its last 16 amino-acids (residues 1-210); human or zebrafish recombinant | – | unable to displace the ArpinA peptide | – | – | – | – | not | not | – | turn more than wild type but less than wild type Arpin injected keratocytes | – | – | –
– | – | GTTGTCATAAATACGACTCATCTTC (all phosphorodiamidate morpholino (PMO)) [arpin morpholino] | – | – | – | – | – | – | – | – | – | – | – | induces dispersion as evidenced by increased lateral cell displacement and a higher distance between cells | increases the probability of presence of protrusions
